Converted amounts (≈) assume the structure as drawn.

Data set [1] can be described thus: physchem. The conditions noted are these: phosphate buffered saline, pH 7.4.
The subject of data set [2] is Mycobacterium tuberculosis H37Rv. In words: microbe, parasite or virus in culture.
Description: GSK_TB: Intracellular minimum inhibitory concentration (MIC) H37Rv assay
A short description of data set [3]: physchem. The conditions noted are these: buffer, pH 7.4.
Description: GSK_TB: GSK in-house hydrophobicity assay at pH7.4 (logD)
Data set [4] can be described thus: physchem. The conditions noted are these: octanol/water.
Description: GSK_TB: GSK in-house hydrophobicity assay (logP)

Regarding `O=C(NNC(=O)c1ccc([N+](=O)[O-])o1)c1ccc2ccccc2c1`, the solubility (kinetic) (in general, solubility judged after dilution from a stock solution rather than from solid) in the data set “physchem [1]” worked out at 1 µM (≈ 0.325 µg/mL). The compound further yielded an MIC90 in data set [2] of 8.32 µM (≈ 2.71 µg/mL). Further, the logD (commonly lipophilicity at a set pH, counting ionised and neutral species) in “physchem [3]” worked out at 3.02. The logP (usually the decadic logarithm of the partition coefficient of the neutral form, usually between octanol and water) in “physchem [4]” came out at 3.48.

For `CC(=O)N1CCc2cc3nc(C)cc(C)c3cc21`, the kinetic solubility in the data set “physchem [1]” was determined as 309 µM (≈ 74.3 µg/mL). The same compound had an MIC90 in data set [2] of 3.7 µM (≈ 0.889 µg/mL). The compound also displayed a logD in “physchem [3]” of 2.64. In “physchem [4]”, the logP worked out at 2.65.

Turning to `Cc1nc2ccccn2c1C(=O)NCc1ccc2c(c1)OCO2`, in “physchem [1]”, the kinetic solubility is 357 µM (≈ 110 µg/mL). In data set [2], the MIC90 was 2.9 µM (≈ 0.897 µg/mL). Also, the logD in “physchem [3]” was determined as 3.02. The logP in the data set “physchem [4]” is 3.02.

As for `FC(F)(F)c1nnc2ccc(Cl)nn12`, the kinetic solubility in “physchem [1]” is 344 µM (≈ 76.6 µg/mL). In data set [2], this compound gave an MIC90 of 9.1 µM (≈ 2.03 µg/mL). In the data set “physchem [3]”, the pH-dependent lipophilicity (logD) amounted to 3.11. In addition, the logP in the data set “physchem [4]” turned out to be 3.1.

`CNc1nc(SC)nc2ccsc12` yielded a solubility (kinetic) in “physchem [1]” of 439 µM (≈ 92.8 µg/mL). This compound returned an MIC90 in data set [2] of 3.4 µM (≈ 0.718 µg/mL). This compound also registered a logD in “physchem [3]” of 3.3. In “physchem [4]”, this compound had a logP of 3.3.

Regarding `Brc1cncc(-c2cc(NCCCn3ccnc3)nc(-c3ccccc3)n2)c1`, the kinetic solubility in the data set “physchem [1]” was 15 µM (≈ 6.53 µg/mL). The MIC90 in data set [2] stood at 5.19 µM (≈ 2.26 µg/mL). The logD in the data set “physchem [3]” came out at 5.53. The same compound returned a logP in the data set “physchem [4]” of 5.83.

For `c1ccc(-c2nnc(Sc3ccnc(N4CCN(c5ccncc5)CC4)n3)n2CCCN2CCOCC2)nc1`, in the data set “physchem [1]”, the solubility (kinetic) was found to be 154 µM (≈ 83.9 µg/mL). The compound further returned an MIC90 in data set [2] of 6.38 µM (≈ 3.48 µg/mL). For the same compound, the logD in the data set “physchem [3]” came to 2.08. The logP in “physchem [4]” came to 3.22.

`Clc1ccc(CCNc2cc(-c3ccccc3)nc3ncnn23)cc1` returned a kinetic solubility in the data set “physchem [1]” of 1 µM (≈ 0.35 µg/mL). The MIC90 in data set [2] amounted to 1.5 µM (≈ 0.525 µg/mL). In the data set “physchem [3]”, this compound displayed a logD of 5.53. The same compound came in with a logP in the data set “physchem [4]” of 5.73.

In the data set “physchem [1]”, `Cc1n[nH]c(C)c1S(=O)(=O)NCc1nc(NCCCc2ccccc2)c2ccccc2n1` came in with a solubility (kinetic) of 240 µM (≈ 108 µg/mL). Also, the MIC90 in data set [2] was 1.8 µM (≈ 0.811 µg/mL). In addition, in “physchem [3]”, the log distribution coefficient (logD) is 4.32. The compound further returned a logP in the data set “physchem [4]” of 4.52.

In the data set “physchem [1]”, `COc1cc(C(F)(F)F)nc2ccc(C)c(N)c12` displayed a kinetic solubility of 446 µM (≈ 114 µg/mL). This compound returned an MIC90 in data set [2] of 5.3 µM (≈ 1.36 µg/mL). Besides, the logD in “physchem [3]” worked out at 4.97. The same compound came in with a logP in “physchem [4]” of 5.13.

For the compound `CNc1nc(SCC(=O)N(C)Cc2ccc(Cl)s2)nc2ccccc12`, the kinetic solubility in “physchem [1]” worked out at 56 µM (≈ 22 µg/mL). In data set [2], this compound returned an MIC90 of 5.62 µM (≈ 2.21 µg/mL). In addition, the logD in the data set “physchem [3]” stood at 5.07. The logP in “physchem [4]” was found to be 5.23.

Turning to `Cc1nc2ccccn2c1C(=O)NCc1ccc(Cl)cc1`, in the data set “physchem [1]”, the solubility (kinetic) was found to be 405 µM (≈ 121 µg/mL). The MIC90 in data set [2] stood at 0.4 µM (≈ 0.12 µg/mL). The compound further yielded a logD in “physchem [3]” of 4.04. In the data set “physchem [4]”, this compound showed a lipophilicity (logP) of 4.12.

Compound `CC(C)(C)C(=O)CC1(O)Oc2ccccc2N=C1C=C(O)C(C)(C)C` (configuration not stated) displayed a solubility (kinetic) in “physchem [1]” of 75 µM (≈ 25.9 µg/mL). In data set [2], this compound registered an MIC90 of 4.03 µM (≈ 1.39 µg/mL). In addition, the logD in “physchem [3]” turned out to be 7.49. In “physchem [4]”, this compound registered a logP of 7.84.

In the case of `O=C(C1CCN(c2nnc(-n3cccc3)s2)CC1)N1CCC(Cc2ccccc2)CC1`, in “physchem [1]”, the solubility (kinetic) turned out to be 1 µM (≈ 0.436 µg/mL). In data set [2], this compound registered an MIC90 of 4.2 µM (≈ 1.83 µg/mL). In addition, the logD in “physchem [3]” was 6.37. For the same compound, in the data set “physchem [4]”, the logP is 6.78.

For the compound `COc1cc(Nc2ccccc2)ccc1NS(=O)(=O)c1c(C)noc1C`, in the data set “physchem [1]”, the kinetic solubility turned out to be 53 µM (≈ 19.8 µg/mL). Also, the MIC90 in data set [2] came to 6.1 µM (≈ 2.28 µg/mL). Further, in the data set “physchem [3]”, the logD stood at 5.53. Moreover, the logP in “physchem [4]” stood at 5.78.

With `COc1cc2ccccc2cc1C(=O)NCc1cccc(-c2ccccc2OC)c1`, in the data set “physchem [1]”, the kinetic solubility worked out at 84 µM (≈ 33.4 µg/mL). Further, the MIC90 in data set [2] is 2.2 µM (≈ 0.874 µg/mL). The logD in “physchem [3]” was 7.21. Also, the logP in the data set “physchem [4]” was found to be 7.58.

The compound `N#Cc1ccc2c(c1)CCN(CCCSc1ccnc3cc(C(F)(F)F)ccc13)CC2` showed a solubility (kinetic) in the data set “physchem [1]” of 1 µM (≈ 0.442 µg/mL). The compound also returned an MIC90 in data set [2] of 2.4 µM (≈ 1.06 µg/mL). For the same compound, in “physchem [3]”, the logD is 7.96. In “physchem [4]”, this compound showed a logP of 8.64.

In the data set “physchem [1]”, `CCOc1ccc(OCc2ccc(C(=O)NNC(=O)c3ccc([N+](=O)[O-])o3)cc2)cc1` came in with a kinetic solubility of 1 µM (≈ 0.425 µg/mL). The MIC90 in data set [2] was 2.5 µM (≈ 1.06 µg/mL). For the same compound, the logD in the data set “physchem [3]” was 4.32. The compound further registered a logP in “physchem [4]” of 4.88.

`COc1ccc2nc(C)cc(OCC(=O)NCc3ccccc3)c2c1` displayed a kinetic solubility in the data set “physchem [1]” of 96 µM (≈ 32.3 µg/mL). The compound also came in with an MIC90 in data set [2] of 1.1 µM (≈ 0.37 µg/mL). In “physchem [3]”, this compound came in with a pH-dependent lipophilicity (logD) of 3.86. In the data set “physchem [4]”, this compound displayed a logP of 3.92.

For `CN1CCN(c2cc(-c3ccc(F)cc3)nc(-c3ccncc3)n2)CC1`, the solubility (kinetic) in the data set “physchem [1]” amounted to 44 µM (≈ 15.4 µg/mL). Besides, the MIC90 in data set [2] is 7.41 µM (≈ 2.59 µg/mL). This compound also returned a pH-dependent lipophilicity (logD) in “physchem [3]” of 5.07. This compound also gave a logP in “physchem [4]” of 5.73.

`Cc1ccc2nc(Cl)c(CNCc3cccs3)cc2c1`: the kinetic solubility in “physchem [1]” turned out to be 44 µM (≈ 13.3 µg/mL). Also, in data set [2], the MIC90 was 7.59 µM (≈ 2.3 µg/mL). This compound also registered a logD in the data set “physchem [3]” of 6.84. The logP in the data set “physchem [4]” amounted to 7.23.

As for `c1ccc(Cc2nnc(Sc3ccnc(N4CCN(c5ccncc5)CC4)n3)n2CCN2CCOCC2)cc1`, in the data set “physchem [1]”, the solubility (kinetic) turned out to be 186 µM (≈ 101 µg/mL). Further, the MIC90 in data set [2] was 7.85 µM (≈ 4.27 µg/mL). Moreover, in the data set “physchem [3]”, the logD was 2.18. This compound showed a logP in the data set “physchem [4]” of 3.12.

In the data set “physchem [1]”, `C=CCNc1nc(SC)nc2ccccc12` returned a kinetic solubility of 279 µM (≈ 64.5 µg/mL). In data set [2], this compound registered an MIC90 of 3.2 µM (≈ 0.74 µg/mL). In “physchem [3]”, this compound yielded a log distribution coefficient (logD) of 4.97. Further, in the data set “physchem [4]”, the logP amounted to 5.13.

Compound `c1csc(-c2nnc(Sc3ccnc(N4CCN(c5ccncc5)CC4)n3)n2CCCN2CCOCC2)c1` had a solubility (kinetic) in the data set “physchem [1]” of 185 µM (≈ 102 µg/mL). This compound also came in with an MIC90 in data set [2] of 3.43 µM (≈ 1.88 µg/mL). In the data set “physchem [3]”, this compound returned a logD of 2.08. For the same compound, the lipophilicity (logP) in the data set “physchem [4]” worked out at 3.12.

`CC(C)n1ncc2c(C(=O)NCC(c3cccs3)N3CCOCC3)cc(-c3ccccc3)nc21` (configuration not stated) registered a kinetic solubility in the data set “physchem [1]” of 1 µM (≈ 0.476 µg/mL). In addition, the MIC90 in data set [2] was determined as 4.8 µM (≈ 2.28 µg/mL). In addition, in “physchem [3]”, the logD came to 7.21. Also, the logP in the data set “physchem [4]” amounted to 7.54.

As for `Cc1nn(Cc2ccccc2)c(Cl)c1C(=O)NC1CCCCCC1`, in the data set “physchem [1]”, the solubility (kinetic) came to 28 µM (≈ 9.68 µg/mL). Further, the MIC90 in data set [2] was 5.2 µM (≈ 1.8 µg/mL). The compound further came in with a log distribution coefficient (logD) in the data set “physchem [3]” of 6.75. The logP in the data set “physchem [4]” turned out to be 7.04.

On to `O=C(CCCSc1ccccc1)NNC(=O)c1cccs1`, for which the kinetic solubility in the data set “physchem [1]” worked out at 559 µM (≈ 179 µg/mL). For the same compound, in data set [2], the MIC90 came out at 8.32 µM (≈ 2.67 µg/mL). In addition, the pH-dependent lipophilicity (logD) in the data set “physchem [3]” was 3.67. The same compound came in with a logP in “physchem [4]” of 3.77.

In turn, `COc1ccc(-c2nc(-c3cccc(NC(=O)Cc4ccc(F)cc4)c3)no2)cc1OC` yielded a kinetic solubility in the data set “physchem [1]” of 102 µM (≈ 44.2 µg/mL). In addition, the MIC90 in data set [2] is 3.7 µM (≈ 1.6 µg/mL). Moreover, in the data set “physchem [3]”, the logD amounted to 6.37. In “physchem [4]”, this compound came in with a logP of 6.68.

On to `CC(=O)NCCn1c(Sc2ccnc(N3CCN(c4ccncc4)CC3)n2)nnc1-c1ccccc1`, for which the kinetic solubility in the data set “physchem [1]” was determined as 135 µM (≈ 67.7 µg/mL). The compound further displayed an MIC90 in data set [2] of 8.91 µM (≈ 4.47 µg/mL). The compound also came in with a logD in the data set “physchem [3]” of 1.06. This compound came in with a logP in the data set “physchem [4]” of 1.82.

In the data set “physchem [1]”, `CN1CCN(c2cc(-c3ccncc3)nc(-c3ccccc3)n2)CC1` showed a kinetic solubility of 379 µM (≈ 126 µg/mL). The MIC90 in data set [2] came to 9.02 µM (≈ 2.99 µg/mL). This compound also returned a logD in the data set “physchem [3]” of 4.88. In “physchem [4]”, the logP was 5.54.

For `N=C(Nc1nc(-c2ccccn2)cc2ccccc12)c1cccc(Cl)c1`, the kinetic solubility in “physchem [1]” stood at 1 µM (≈ 0.359 µg/mL). Moreover, the MIC90 in data set [2] was 4.5 µM (≈ 1.61 µg/mL). For the same compound, in the data set “physchem [3]”, the pH-dependent lipophilicity (logD) is 8.24. Further, the logP in the data set “physchem [4]” came to 8.64.

For the compound `COc1ccc2sc(Nc3nc(-c4ccccn4)cs3)nc2c1`, in the data set “physchem [1]”, the solubility (kinetic) was found to be 22 µM (≈ 7.49 µg/mL). In data set [2], this compound yielded an MIC90 of 8.2 µM (≈ 2.79 µg/mL). The compound also showed a logD in “physchem [3]” of 5.35. Also, in “physchem [4]”, the logP came to 5.34.

In turn, `Cc1occc1C(=O)Nc1nc(-c2ccccn2)nc2ccsc12` returned a solubility (kinetic) in “physchem [1]” of 105 µM (≈ 35.3 µg/mL). Further, the MIC90 in data set [2] turned out to be 4 µM (≈ 1.35 µg/mL). For the same compound, in the data set “physchem [3]”, the logD was found to be 4.79. For the same compound, the logP in “physchem [4]” was found to be 4.93.

Source of the values: ChEMBL document CHEMBL2095176, “GSK Tuberculosis Screening Data”.
